In US9597407B2, “Targeted antimicrobial moieties” (C3 Jian, Inc., priority 2009, dated 2017):
Entries after “also recorded” stand apart in the source; their conditions may differ.

Columns and labels:
[1] = tested on: bacteria; test: Binding of targeting peptides to microorganisms (Table 3); settings: preferably 1x PBS; for Target(s) (microorganisms bound by the targeting peptide) / Target(s) (microorganism bound by the targeting peptide): peptide binding in aqueous buffers that varied depending on peptide solubility
[2] = tested on: microorganisms; test: Morphology, biofilm and growth disruption by peptides (Table 5); assay type: cell-based; design: key: A: Peptide aggregates; B: Less hyphal formation; Clumps; Diffuse clumps and small polyps; F: Diffuse growth; H: Thin; I: Growth inhibition; Microcolony formation; Rippled; Small polyps; Thick; W: Halo formation on top, microlonies on bottom
From the text: In certain embodiments peptides that induce alterations in phenotype or other biological activities can also be used as antimicrobial effector moieties.

[3] = microorganism bound by the targeting peptide, binding in aqueous buffers chosen by peptide solubility

## PF-434 (GQLLADKRPARDYNRK; Peptide with targeting and/or antimicrobial activity)
[1]
  Target(s) (microorganisms bound by the targeting peptide): S. epidermidis; also recorded: M. luteus; also recorded: S. pneumoniae; also recorded: C. jeikeium
[2]; S. pneumoniae
  Organism, effect (morphology, biofilm and growth disruption): S. pneumoniae (S)

## PF-C062 (PLARATEVVATLFIICSLLLYLTR; Peptide with targeting and/or antimicrobial activity)
[1]
  Target(s) (microorganism bound by the targeting peptide): A. naeslundii; also recorded: F. nucleatum; also recorded: P. gingivalis; also recorded: S. mutans; also recorded: T. denticola
[2]; F. nucleatum
  Organism, effect (morphology, biofilm and growth disruption): F. nucleatum (T)
[2]; S. mutans
  Organism, effect (morphology, biofilm and growth disruption): S. mutans (I)

## PF-659 (chain 1 TVIST; chain 2 TVIST; Peptide with targeting and/or antimicrobial activity)
[1]
  Target(s) (microorganism bound by the targeting peptide): Mycobacteria spp
[2]; B. subtilis
  Organism, effect (morphology, biofilm and growth disruption): B. subtilis (H)
[2]; MRSA
  Organism, effect (morphology, biofilm and growth disruption): MRSA (R)
[2]; S. epidermidis
  Organism, effect (morphology, biofilm and growth disruption): S. epidermidis (M)
[2]; S. pneumoniae
  Organism, effect (morphology, biofilm and growth disruption): S. pneumoniae (C)

## PF-C069 (NALMLREMQLAKNIKVEVTDVLSNKKYC; Peptide with targeting and/or antimicrobial activity)
[1]
  Target(s) (microorganism bound by the targeting peptide): A. naeslundii; also recorded: F. nucleatum; also recorded: P. gingivalis; also recorded: S. mutans; also recorded: T. denticola
[2]; F. nucleatum
  Organism, effect (morphology, biofilm and growth disruption): F. nucleatum (T)

## PF-153 (GILARADCSQIA; Peptide with targeting and/or antimicrobial activity)
[1]; [3]
  Target(s): M. luteus and P. mirabilis and E. coli and MRSA
[2]; C. jeikeium
  Organism, effect: C. jeikeium (C)
[2]; S. epidermidis
  Organism, effect: S. epidermidis (M)

## PF-596 (SKMWDKILTILILILELIRELIKL; Peptide with targeting and/or antimicrobial activity)
[1]
  Target(s) (microorganisms bound by the targeting peptide): S. epidermidis and M. luteus and P. mirabilis and E. coli and P. aeruginosa and MRSA and E. faecalis
[2]; C. jejuni
  Organism, effect (morphology, biofilm and growth disruption): C. jejuni (D)
[2]; E. coli
  Organism, effect (morphology, biofilm and growth disruption): E. coli (C)
[2]; E. faecalis
  Organism, effect (morphology, biofilm and growth disruption): E. faecalis (D)
[2]; MRSA
  Organism, effect (morphology, biofilm and growth disruption): MRSA (D)
[2]; S. epidermidis
  Organism, effect (morphology, biofilm and growth disruption): S. epidermidis (D)
[2]; S. pneumoniae
  Organism, effect (morphology, biofilm and growth disruption): S. pneumoniae (D)

## PF-594 (IVSAIV; Peptide with targeting and/or antimicrobial activity)
[1]
  Target(s) (microorganisms bound by the targeting peptide): C. jeikeium
[2]; E. faecalis
  Organism, effect (morphology, biofilm and growth disruption): E. faecalis (C)

## PF-702 (chain 1 LSGRLAGRR; chain 2 LSGRLAGRR; Peptide with targeting and/or antimicrobial activity)
[1]
  Target(s) (microorganism bound by the targeting peptide): Mycobacteria spp
[2]; S. pneumoniae
  Organism, effect (morphology, biofilm and growth disruption): S. pneumoniae (H)

## ALDCSEQSVILWYETILDKIVGVIK [PF-028]
[1]; microorganism the targeting peptide binds, binding in aqueous buffers that varied with peptide solubility
  Target(s): S. epidermidis and M. luteus and MRSA
[2]; C. jeikeium
  Organism, effect: C. jeikeium (M)
[2]; MRSA
  Organism, effect: MRSA (R)
[2]; S. epidermidis
  Organism, effect: S. epidermidis (M)

## PF-413 (TFAGSIKIGVPDLVHVTFNCKR; Peptide with targeting and/or antimicrobial activity)
[1]
  Target(s) (microorganisms bound by the targeting peptide): P. aeruginosa; also recorded: C. albicans; also recorded: C. jejuni
[2]; E. coli
  Organism, effect: E. coli (S)
[2]; MRSA
  Organism, effect: MRSA (C)
[2]; S. epidermidis
  Organism, effect: S. epidermidis (C)

## LSLATFAKIFMTRSNWSLKRFNRL [PF-278]
[1]; [3]
  Target(s): M. luteus; also recorded: A. baumannii
[2]; C. albicans
  Organism, effect: C. albicans (B)
[2]; M. luteus
  Organism, effect: M. luteus (R)
[2]; S. epidermidis
  Organism, effect: S. epidermidis (I)

## PF-301 (GIVLIGLKLIPLLANVLN; Peptide with targeting and/or antimicrobial activity)
[1]; [3]
  Target(s): C. difficile
[2]; B. subtilis
  Organism, effect: B. subtilis (C)
[2]; S. epidermidis
  Organism, effect: S. epidermidis (C)

## PF-649 (chain 1 CPRYPFVDVGPAGPWRARWRVGS; chain 2 CPRYPFVDVGPAGPWRARWRVGS; Peptide with targeting and/or antimicrobial activity)
[1]
  Target(s) (microorganism bound by the targeting peptide): Mycobacteria spp
[2]; E. faecalis
  Organism, effect (morphology, biofilm and growth disruption): E. faecalis (R)

## PF-397 (VEDLMEDLNA; Peptide with targeting and/or antimicrobial activity)
[1]
  Target(s) (microorganisms bound by the targeting peptide): S. epidermidis and MRSA and S. pneumoniae and E. faecalis and C. jejuni
[2]; S. epidermidis
  Organism, effect: S. epidermidis (C)

## PF-588 (ESVEAIKAKAIK; Peptide with targeting and/or antimicrobial activity)
[1]
  Target(s) (microorganisms bound by the targeting peptide): S. epidermidis; also recorded: E. coli; also recorded: C. albicans; also recorded: E. faecalis; also recorded: C. jeikeium; also recorded: C. jejuni
[2]; E. faecalis
  Organism, effect (morphology, biofilm and growth disruption): E. faecalis (A)

## LNFRAENKILEKIHISLIDTVEGSA [PF-575]
[1]
  Target(s) (microorganisms bound by the targeting peptide): M. luteus and E. coli and C. albicans and MRSA and S. pneumoniae and E. faecalis and C. jeikeium
[2]; C. jeikeium
  Organism, effect (morphology, biofilm and growth disruption): C. jeikeium (A)
[2]; C. jejuni
  Organism, effect (morphology, biofilm and growth disruption): C. jejuni (R)
[2]; P. aeruginosa
  Organism, effect (morphology, biofilm and growth disruption): P. aeruginosa (A)
[2]; S. pneumoniae
  Organism, effect (morphology, biofilm and growth disruption): S. pneumoniae (A)

## DEIKVSDEEIEKFIKENNL [PF-597]
[1]
  Target(s) (microorganism bound by the targeting peptide): P. mirabilis
[2]; E. faecalis
  Organism, effect (morphology, biofilm and growth disruption): E. faecalis (A)

## PF-631 (chain 1 LIIYFSKTGNTARATRQI; chain 2 LIIYFSKTGNTARATRQI; Peptide with targeting and/or antimicrobial activity)
[1]
  Target(s) (microorganism bound by the targeting peptide): S. epidermidis and P. aeruginosa and C. albicans and MRSA and S. pneumoniae and E. faecalis and C. jeikeium
[2]; E. faecalis
  Organism, effect (morphology, biofilm and growth disruption): E. faecalis (H)
[2]; S. pneumoniae
  Organism, effect (morphology, biofilm and growth disruption): S. pneumoniae (I)

## PF-405 (LVRIEVDDLEEWYERNFI; Peptide with targeting and/or antimicrobial activity)
[1]
  Target(s) (microorganisms bound by the targeting peptide): S. epidermidis; also recorded: E. coli; also recorded: E. faecalis
[2]; MRSA
  Organism, effect: MRSA (M)

## PF-651 (chain 1 PRWPTGAGRHR; chain 2 PRWPTGAGRHR; Peptide with targeting and/or antimicrobial activity)
[1]
  Target(s) (microorganism bound by the targeting peptide): Mycobacteria spp
[2]; S. pneumoniae
  Organism, effect (morphology, biofilm and growth disruption): S. pneumoniae (H)

## PF-233 (DANAMARTTIAIVYILALIALTISYSL; Peptide with targeting and/or antimicrobial activity)
[1]; [3]
  Target(s): S. epidermidis; also recorded: M. luteus; also recorded: P. aeruginosa; also recorded: A. baumannii
[2]; S. epidermidis
  Organism, effect: S. epidermidis (C)

## PF-C142 (DFPPLSFFRRRFHAYTAPIDNFFGANPF; Peptide with targeting and/or antimicrobial activity)
[1]
  Target(s) (microorganism bound by the targeting peptide): A. naeslundii; also recorded: F. nucleatum; also recorded: P. gingivalis; also recorded: S. mutans; also recorded: T. denticola
[2]; S. mutans
  Organism, effect (morphology, biofilm and growth disruption): S. mutans (I)

## SFMPEIQKNTIPTQMK [PF-512]
[1]
  Target(s) (microorganisms bound by the targeting peptide): S. pneumoniae; also recorded: C. jeikeium
[2]; S. pneumoniae
  Organism, effect (morphology, biofilm and growth disruption): S. pneumoniae (H)
